According to US20250195521A1 (Revolution Medicines, Inc., priority 2020, published 2025):
Like-named read-outs stand apart in the source and are kept apart here.

Experiments:
NRAS G12C = NRAS G12C (Homo sapiens (Human), UniProt P01111+P62937, G12C); test: Ras-Raf disruption/FRET/MOA assay (BRAF RBD, Cyclophilin A); format: biochemical
Method: (§1) Compound is present in plate wells as a 10-point 3-fold dilution series starting at a final concentration of 30 μM. After incubation at 25° C. for 3 hours, a mixture of Anti-His Eu—W1024 and anti-GST allophycocyanin is then added to assay sample wells at final concentrations of 10 nM and 50 nM, respectively, and the reaction incubated for an additional 1.5 hours. […] Compounds that facilitate disruption of a Ras: RAF complex are identified as those eliciting a decrease in the TR-FRET ratio relative to DMSO control wells.
(§2) Disruption of B-Raf Ras-Binding Domain (BRAF^RBD) Interaction with K-Ras by Compounds of the Invention (Also Called a FRET Assay or an MOA Assay)
(§3) Note—The following protocol describes a procedure for monitoring disruption of K-Ras G12C (GMP-PNP) binding to BRAF^RBD by a compound of the invention. This protocol may also be executed substituting other Ras proteins or nucleotides.
(§4) The purpose of this biochemical assay was to measure the ability of test compounds to facilitate ternary complex formation between a nucleotide-loaded K-Ras isoform and Cyclophilin A; the resulting ternary complex disrupts binding to a BRAF^RBD construct, inhibiting K-Ras signaling through a RAF effector. Data is reported as IC50 values.
(§5) In assay buffer containing 25 mM HEPES pH 7.3, 0.002% Tween20, 0.1% BSA, 100 mM NaCl and 5 mM MgCl2, tagless Cyclophilin A, His6-K-Ras-GMPPNP, and GST-BRAF^RBD were combined in a 384-well assay plate at final concentrations of 25 μM, 12.5 nM and 50 nM, respectively. Compound was present in plate wells as a 10-point 3-fold dilution series starting at a final concentration of 30 μM. After incubation at 25° C. for 3 hours, a mixture of Anti-His Eu—W1024 and anti-GST allophycocyanin was then added to assay sample wells at final concentrations of 10 nM and 50 nM, respectively, and the reaction incubated for an additional 1.5 hours. […] Compounds that facilitate disruption of a K-Ras: RAF complex were identified as those eliciting a decrease in the TR-FRET ratio relative to DMSO control wells.

KRAS WT = KRAS WT (Homo sapiens (Human), UniProt P01116+P62937); test: as above; format: biochemical
Method: as §1, §2, §3, §4, §5

KRAS G13C = KRAS G13C (Homo sapiens (Human), UniProt P01116+P62937, G13C); test: as above; format: biochemical
Method: as §1, §2, §3, §4, §5

KRAS G12V = KRAS G12V (Homo sapiens (Human), UniProt P01116+P62937, G12V); test: as above; format: biochemical; details: read-out: KRAS G12V FRET IC50
Method: as §1, §2, §3, §4, §5

KRAS G12C = KRAS G12C (Homo sapiens (Human), UniProt P01116+P62937, G12C); test: as above; format: biochemical
Method: as §1, §2, §3, §4, §5

KRAS G13D = KRAS G13D (Homo sapiens (Human), UniProt P01116+P62937, G13D); test: as above; format: biochemical
Method: as §1, §2, §3, §4, §5

KRAS G12D = KRAS G12D (Homo sapiens (Human), UniProt P01116+P62937, G12D); test: as above; format: biochemical
Method: as §1, §2, §3, §4, §5

KRAS G12S = KRAS G12S (Homo sapiens (Human), UniProt P01116+P62937, G12S); test: as above; format: biochemical
Method: as §1, §2, §3, §4, §5

[1] = tested on: Capan-1 cells (K-Ras G12V); test: CellTiter-Glo cell viability, Capan-1; format: cell-based, human; details: Homo sapiens, CAPAN-1, 120 h, read-out: Capan-1 Cell Viability IC50
Outline: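 Endpoint: CellTiter-Glo luminescence on day 5, following ~30 min at room temperature. Data as (sample/mean DMSO)×100, four-parameter logistic fit.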

[2] = read-out: NRAS G12C FRET data IC50
[3] = read-out: KRAS WT FRET data IC50
[4] = read-out: KRAS G13D FRET data IC50

Sequence of KRAS G12D (P01116 other isoform, or with tags, fused parts or gaps G12D): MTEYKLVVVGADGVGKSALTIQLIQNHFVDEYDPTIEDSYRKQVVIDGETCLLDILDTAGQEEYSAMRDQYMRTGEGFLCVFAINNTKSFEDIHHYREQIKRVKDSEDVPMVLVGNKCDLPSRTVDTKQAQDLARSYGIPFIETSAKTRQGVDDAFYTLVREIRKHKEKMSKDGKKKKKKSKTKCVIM
Sequence of KRAS G12D (P62937 whole entry): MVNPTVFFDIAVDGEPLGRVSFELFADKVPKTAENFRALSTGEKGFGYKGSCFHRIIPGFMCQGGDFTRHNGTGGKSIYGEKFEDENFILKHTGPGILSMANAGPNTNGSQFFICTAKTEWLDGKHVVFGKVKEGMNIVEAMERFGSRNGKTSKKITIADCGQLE
Sequence of KRAS WT (P01116 other isoform, or with tags, fused parts or gaps): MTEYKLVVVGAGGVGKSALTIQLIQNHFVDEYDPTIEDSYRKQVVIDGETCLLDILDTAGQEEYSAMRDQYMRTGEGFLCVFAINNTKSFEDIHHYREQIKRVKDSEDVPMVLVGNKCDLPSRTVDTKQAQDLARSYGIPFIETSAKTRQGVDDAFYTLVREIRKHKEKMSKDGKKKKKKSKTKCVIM
Sequence of KRAS WT (P62937 whole entry): as the sequence (P62937 whole entry) above
Sequence of KRAS G12C (P01116-2 other isoform, or with tags, fused parts or gaps G12C): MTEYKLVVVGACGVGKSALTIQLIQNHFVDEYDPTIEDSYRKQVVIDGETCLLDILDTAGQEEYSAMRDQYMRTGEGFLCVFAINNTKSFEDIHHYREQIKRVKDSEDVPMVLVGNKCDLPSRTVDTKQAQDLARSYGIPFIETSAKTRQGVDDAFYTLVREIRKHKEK
Sequence of KRAS G12C (P62937 whole entry): as the sequence (P62937 whole entry) above
Sequence of NRAS G12C (P01111 whole entry G12C): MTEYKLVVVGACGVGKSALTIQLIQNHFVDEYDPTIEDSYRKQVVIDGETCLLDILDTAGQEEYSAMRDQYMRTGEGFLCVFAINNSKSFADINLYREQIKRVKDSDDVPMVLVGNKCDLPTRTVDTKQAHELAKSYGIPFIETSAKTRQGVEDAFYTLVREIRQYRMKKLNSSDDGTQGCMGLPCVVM
Sequence of NRAS G12C (P62937 whole entry): as the sequence (P62937 whole entry) above
Sequence of KRAS G12V (P01116 other isoform, or with tags, fused parts or gaps G12V): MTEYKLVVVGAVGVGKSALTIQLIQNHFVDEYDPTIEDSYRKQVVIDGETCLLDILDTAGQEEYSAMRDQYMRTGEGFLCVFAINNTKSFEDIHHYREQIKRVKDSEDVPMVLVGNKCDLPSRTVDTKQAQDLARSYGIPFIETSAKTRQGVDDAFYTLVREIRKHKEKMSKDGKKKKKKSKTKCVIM
Sequence of KRAS G12V (P62937 whole entry): as the sequence (P62937 whole entry) above
Sequence of KRAS G12S (P01116 other isoform, or with tags, fused parts or gaps G12S): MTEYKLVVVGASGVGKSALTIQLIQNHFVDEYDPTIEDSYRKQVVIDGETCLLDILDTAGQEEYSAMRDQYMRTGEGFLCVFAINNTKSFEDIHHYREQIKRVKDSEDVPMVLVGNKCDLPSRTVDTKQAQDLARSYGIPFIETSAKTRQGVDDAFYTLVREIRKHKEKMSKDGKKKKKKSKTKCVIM
Sequence of KRAS G12S (P62937 whole entry): as the sequence (P62937 whole entry) above
Sequence of KRAS G13C (P01116 other isoform, or with tags, fused parts or gaps G13C): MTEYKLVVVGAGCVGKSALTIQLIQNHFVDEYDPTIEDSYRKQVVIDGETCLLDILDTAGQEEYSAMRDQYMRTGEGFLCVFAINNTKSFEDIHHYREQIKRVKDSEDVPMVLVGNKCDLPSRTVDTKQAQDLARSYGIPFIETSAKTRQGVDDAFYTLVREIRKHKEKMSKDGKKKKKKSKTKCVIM
Sequence of KRAS G13C (P62937 whole entry): as the sequence (P62937 whole entry) above
Sequence of KRAS G13D (P01116 other isoform, or with tags, fused parts or gaps G13D): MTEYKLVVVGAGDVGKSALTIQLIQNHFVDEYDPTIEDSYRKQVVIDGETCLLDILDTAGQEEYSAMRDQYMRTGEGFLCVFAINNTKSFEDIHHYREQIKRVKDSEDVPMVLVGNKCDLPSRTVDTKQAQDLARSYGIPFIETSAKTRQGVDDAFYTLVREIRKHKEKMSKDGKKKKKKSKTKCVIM
Sequence of KRAS G13D (P62937 whole entry): as the sequence (P62937 whole entry) above

IC50 (NRAS G12C; [2]) [nM]	IC50 (KRAS WT; [3]) [nM]	IC50 (KRAS G13C; read-out: KRAS G13C FRET IC50) [nM]	IC50 (KRAS G12V) [nM]	IC50 (KRAS G12C; read-out: KRAS G12C FRET IC50) [nM]	IC50 (KRAS G13D; [4]) [nM]	IC50 (KRAS G12D; read-out: KRAS G12D FRET IC50) [nM]	IC50 (KRAS G12S; read-out: KRAS G12S FRET IC50) [nM]	SMILES	IC50 ([1]; K-Ras G12V, 5-day treatment) [nM]	IC50 (NRAS G12C; NRAS G12C FRET data IC50) [nM]	IC50 (KRAS WT; KRAS WT FRET data IC50) [nM]	IC50 (KRAS G13C; KRAS G13C FRET IC50) [nM]	IC50 (KRAS G12C; KRAS G12C FRET IC50) [nM]	IC50 (KRAS G13D; KRAS G13D FRET data IC50) [nM]	IC50 (KRAS G12D; KRAS G12D FRET IC50) [nM]	IC50 (KRAS G12S; KRAS G12S FRET IC50) [nM]	IC50 [1] [nM]
10 to 100	10 to 100	10 to 100	10 to 100	10 to 100	10 to 100	10 to 100	10 to 100	CCn1c(-c2cccnc2[C@H](C)OC)c2c3cc(ccc31)-c1cc(O)cc(c1)C[C@H](NC(=O)[C@H](C(C)C)N(C)C(=O)C1CC13CNC3)C(=O)N1CCC[C@H](N1)C(=O)OCC(C)(C)C2 (stereo partly shown) [Compound A140]	> 10000	–	–	–	–	–	–	–	–
10 to 100	10 to 100	10 to 100	–	10 to 100	100 to 1000	100 to 1000	100 to 1000	CCn1c(-c2cccnc2[C@H](C)OC)c2c3cc(ccc31)-c1cc(O)cc(c1)C[C@H](NC(=O)[C@H](C(C)C)N(C)C(=O)[C@@H]1C[C@@H]1F)C(=O)N1CCC[C@H](N1)C(=O)OCC(C)(C)C2 [Compound A160]	100 to 1000	–	–	–	–	–	–	–	–
1000 to 10000	1000 to 10000	100 to 1000	1000 to 10000	1000 to 10000	1000 to 10000	> 10000	1000 to 10000	CCn1c(-c2cccnc2[C@H](C)OC)c2c3cc(ccc31)-c1cc(O)cc(c1)C[C@H](NC(=O)[C@H](C(C)C)N(C)C(=O)OCc1ccccc1)C(=O)N1CCC[C@H](N1)C(=O)OCC(C)(C)C2 [Compound A185]	1000 to 10000	–	–	–	–	–	–	–	–

The next lines start with the compound.

SMILES	IC50 (NRAS G12C; [2]) [nM]	IC50 (KRAS WT; [3]) [nM]	IC50 (KRAS G13C; read-out: KRAS G13C FRET IC50) [nM]	IC50 (KRAS G12V) [nM]	IC50 (KRAS G12C; read-out: KRAS G12C FRET IC50) [nM]	IC50 (KRAS G13D; [4]) [nM]	IC50 (KRAS G12D; read-out: KRAS G12D FRET IC50) [nM]	IC50 (KRAS G12S; read-out: KRAS G12S FRET IC50) [nM]	IC50 ([1]; K-Ras G12V, 5-day treatment) [nM]	IC50 (NRAS G12C; NRAS G12C FRET data IC50) [nM]	IC50 (KRAS WT; KRAS WT FRET data IC50) [nM]	IC50 (KRAS G13C; KRAS G13C FRET IC50) [nM]	IC50 (KRAS G12C; KRAS G12C FRET IC50) [nM]	IC50 (KRAS G13D; KRAS G13D FRET data IC50) [nM]	IC50 (KRAS G12D; KRAS G12D FRET IC50) [nM]	IC50 (KRAS G12S; KRAS G12S FRET IC50) [nM]	IC50 [1] [nM]
CCn1c(-c2cnccc2COC)c2c3cc(ccc31)-c1cc(O)cc(c1)C[C@H](NC(=O)[C@H](C(C)C)N(C)C(=O)[C@@H]1CNC[C@@H]1C(F)(F)F)C(=O)N1CCC[C@H](N1)C(=O)OCC(C)(C)C2 [Compound A79]	100 to 1000	100 to 1000	100 to 1000	1000 to 10000	100 to 1000	100 to 1000	100 to 1000	100 to 1000	> 10000	–	–	–	–	–	–	–	–
CCn1c(-c2cccnc2[C@H](C)OC)c2c3cc(ccc31)-c1csc(n1)C[C@H](NC(=O)[C@H](C(C)C)N(C)C(=O)[C@H]1CCN(CCO)C1)C(=O)N1CCC[C@H](N1)C(=O)OCC(C)(C)C2 [Compound A110]	1000 to 10000	1000 to 10000	1000 to 10000	> 10000	1000 to 10000	1000 to 10000	1000 to 10000	1000 to 10000	> 10000	–	–	–	–	–	–	–	–
CCn1c(-c2cccnc2[C@H](C)OC)c2c3cc(ccc31)-c1cc(O)cc(c1)C[C@H](NC(=O)C13CCCC1C3(F)F)C(=O)N1CCC[C@H](N1)C(=O)OCC(C)(C)C2 (stereo partly shown) [Compound A180]	1000 to 10000	1000 to 10000	100 to 1000	1000 to 10000	1000 to 10000	1000 to 10000	> 10000	1000 to 10000	1000 to 10000	–	–	–	–	–	–	–	–
CCn1c(-c2cccnc2[C@H](C)OC)c2c3cc(ccc31)-c1cc(O)cc(c1)C[C@H](NC(=O)N1CCOCC1)C(=O)N1CCC[C@H](N1)C(=O)OCC(C)(C)C2 [Compound A199]	–	–	–	–	–	–	–	–	–	1000 to 10000	1000 to 10000	1000 to 10000	1000 to 10000	1000 to 10000	> 10000	> 10000	> 10000
